Results from patent US20100210836A1, “SMALL MOLECULE INHIBITORS OF LYMPHOID TYROSINE PHOSPHATASE” (University of Southern California, priority 2009, published 2010).
Read-outs that look alike come from different tables or passages of the source.

Legend:
[1] = molecular target: T1, LYP/PTPN22 (Homo sapiens, UniProt Q9Y2R2); assay: biochemical
T1 construct: catalytic domains of LYP (aa 2-309) and PTP-PEST (aa 2-323, PEST); 6xHis (N, cleaved yes); made in house; host or cells: E. coli BL21
T1 sequence (Q9Y2R2 2-309): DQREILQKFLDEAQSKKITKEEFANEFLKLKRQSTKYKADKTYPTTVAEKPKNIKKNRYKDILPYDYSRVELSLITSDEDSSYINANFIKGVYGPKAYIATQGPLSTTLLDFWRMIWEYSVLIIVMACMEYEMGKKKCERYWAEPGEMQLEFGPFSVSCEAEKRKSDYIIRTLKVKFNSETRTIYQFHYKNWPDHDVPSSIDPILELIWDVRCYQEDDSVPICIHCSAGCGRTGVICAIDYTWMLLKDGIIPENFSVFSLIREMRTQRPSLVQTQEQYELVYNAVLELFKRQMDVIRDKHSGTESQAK
Procedure: Chemical Library Screening for LYP Inhibitors. A library consisting of a highly diverse set of 4,000 compounds was screened in a 96-well format in an assay specific for LYP activity. […] The reaction mixture with the compounds was incubated for 25 min at 37° C. […] All assays were done in triplicate. The IC50 values were then determined for each drug from a plot of log [drug concentration] versus percentage of enzyme inhibition. Absorbance data were measured using a Molecular Devices Emax Precision Microplate reader.
Identification of Compounds as LYP Inhibitors. We initially screened a library of 4000 drug-like small-molecule compounds against LYP/PTPN22, using p-nitrophenyl phosphate (pNPP) as a substrate. The ability of the library members to inhibit LYP/PTPN22 catalyzed hydrolysis of pNPP was measured in a buffer containing 50 mM Bis-Tris pH 6.0, 1 mM DTT at 37° C.

[2] = molecular target: T2, PTP-PEST (Homo sapiens, UniProt Q05209); assay: Counter-screen phosphatase assay PTP-PEST; type: biochemical; details: read-out: PEST IC50
T2 sequence (Q05209 2-323): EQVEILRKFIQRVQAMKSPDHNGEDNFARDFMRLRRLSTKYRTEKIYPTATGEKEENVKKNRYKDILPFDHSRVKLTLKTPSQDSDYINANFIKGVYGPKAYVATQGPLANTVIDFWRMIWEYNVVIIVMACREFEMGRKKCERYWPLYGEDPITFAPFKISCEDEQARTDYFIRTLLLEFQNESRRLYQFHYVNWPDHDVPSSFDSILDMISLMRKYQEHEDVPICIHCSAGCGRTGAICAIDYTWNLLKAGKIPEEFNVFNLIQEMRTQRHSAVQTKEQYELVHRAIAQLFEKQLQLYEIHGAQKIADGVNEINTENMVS

[3] = LYP IC50, Table IV, analogues of E3P13
[4] = selectivity, ratio PEST IC50 / LYP IC50, Table IV
[5] = Table IV, analogues of E3P13, read-out: LYP IC50

Row | Compound | IC50 [1, 3] [µM] | IC50 [2] [µM] | further results
1 | COc1ccc2cc([C@H](c3nnnn3CC3CCCC3)N3CCCC4(CCCCC4)C3)c(=O)[nH]c2c1 [compound 55] | > 40 | – | –
2 | Cc1ccc2cc([C@H](c3nnnn3CC3CCCC3)N3CCCC4(CCCCC4)C3)c(=O)[nH]c2c1 [compound 23] | 17.1 | 38 | PEST_LYP [1, 4]: 2.22
3 | Cc1cccc2cc(C(c3nnnn3C3CCCC3)N3CCN(C(c4ccccc4)c4ccccc4)CC3)c(=O)[nH]c12 (stereo not drawn) [compound 17] | – | 10.1 | PEST_LYP [1]: 0.76; IC50 ([1]; LYP IC50): 13.3 µM
4 | Cc1ccc2[nH]c(=O)c([C@H](c3nnnn3C3CCCC3)N3CCN(C4CCCCC4)CC3)cc2c1 [compound 73] | – | – | IC50 [1, 5]: > 40 µM
5 | Cc1ccc2cc(C(c3nnnn3C3CCCC3)N3CCN(C(c4ccccc4)c4ccccc4)CC3)c(=O)[nH]c2c1 (stereo not drawn) [compound 5] | – | 9.66 | PEST_LYP [1]: 0.81; IC50 ([1]; LYP IC50): 7.86 µM
6 | COc1ccc2cc([C@H](c3nnnn3Cc3ccccc3)N3CCCC4(CCCCC4)C3)c(=O)[nH]c2c1 [compound 27] | 19.3 | 13.7 | PEST_LYP [1, 4]: 0.71
7 | COc1ccc2cc([C@H](c3nnnn3C3CCCC3)N3CCN(c4ccccc4)CC3)c(=O)[nH]c2c1 [compound 66] | > 40 | – | –
8 | Cc1ccc2cc(C(c3nnnn3C3CCCC3)N(Cc3ccccc3)Cc3ccc(C(C)C)cc3)c(=O)[nH]c2c1 (stereo not drawn) [compound 4] | – | 9.96 | PEST_LYP [1]: 1.31; IC50 ([1]; LYP IC50): 7.62 µM
9 | Cc1ccc2[nH]c(=O)c([C@@H](c3nnnn3C3CCCC3)N(CCc3ccccc3)Cc3ccccc3)cc2c1 [compound 16] | 13.3 | 19.7 | PEST_LYP [1, 4]: 1.46
10 | Cc1ccc2[nH]c(=O)c(C(c3nnnn3C3CCCC3)N3CCN(C(c4ccccc4)c4ccccc4)CC3)cc2c1 (stereo not drawn) [compound 3] | – | 8.71 | PEST_LYP [1]: 1.38; IC50 ([1]; LYP IC50): 6.3 µM
11 | COc1ccc2cc(C(c3nnnn3C3CCCC3)N3CCCC4(CCCCC4)C3)c(=O)[nH]c2c1 (stereo not drawn) [compound 26] | – | 31.7 | PEST_LYP [1]: 1.74; IC50 ([1]; LYP IC50): 18.2 µM
12 | COc1ccc(N2CCN([C@H](c3cc4ccc(OC)cc4[nH]c3=O)c3nnnn3C3CCCC3)CC2)cc1 [compound 67] | > 40 | – | –
13 | Cc1ccc2[nH]c(=O)c([C@H](c3nnnn3C(C)(C)C)N3CCCC4(CCCCC4)C3)cc2c1 [compound 33] | 21.2 | 28.2 | PEST_LYP [1, 4]: 1.33
14 | Cc1ccc2[nH]c(=O)c([C@H](c3nnnn3C3CCCC3)N3CCN(c4ccc(F)cc4)CC3)cc2c1 [compound 45] | – | 38 | –
15 | Cc1cccc2cc([C@H](c3nnnn3C3CCCCC3)N3CCN(Cc4ccccc4)CC3)c(=O)[nH]c12 [compound 69] | > 40 | – | –
16 | Cc1ccc2[nH]c(=O)c([C@H](c3nnnn3C3CCCC3)N3CCN(Cc4ccccc4)CC3)cc2c1 [compound 77] | – | – | IC50 [1, 5]: > 40 µM
17 | Cc1ccc2[nH]c(=O)c(C(c3nnnn3C3CCCC3)N(Cc3ccccc3)Cc3ccc(C(C)C)cc3)cc2c1 (stereo not drawn) [compound 1] | – | 5.55 | –
18 | Cc1ccc2[nH]c(=O)c([C@H](c3nnnn3C3CCCC3)N3CCN(C)CC3)cc2c1 [compound 56] | – | – | IC50 [1, 5]: > 40 µM
19 | Cc1ccc2[nH]c(=O)c([C@H](c3nnnn3C3CCCC3)N(C)C3CCCCC3)cc2c1 [compound 53] | > 40 | – | –
20 | COc1ccc2cc([C@@H](c3nnnn3C3CCCC3)N3CCCCC3)c(=O)[nH]c2c1 [compound 64] | > 40 | – | –
21 | Cc1cccc2cc([C@@H](c3nnnn3C3CCCC3)N3CCCCC3)c(=O)[nH]c12 [compound 76] | > 40 | – | –
22 | Cc1ccc2[nH]c(=O)c([C@@H](c3nnnn3C3CCCC3)N(Cc3ccccc3)Cc3ccc(Cl)cc3)cc2c1 [compound 7] | – | 17 | –
23 | Cc1ccc2[nH]c(=O)c([C@H](c3nnnn3C3CCCC3)N3CCN(Cc4ccccc4)CC3)cc2c1 [compound 80] | – | – | IC50 [1, 5]: > 40 µM
24 | COc1ccc(CN(Cc2ccccc2)[C@@H](c2cc3cc(C)ccc3[nH]c2=O)c2nnnn2C2CCCC2)cc1 [compound 15] | – | 15.1 | –
25 | Cc1cccc2cc([C@H](c3nnnn3CC3CCCC3)N3CCCC4(CCCCC4)C3)c(=O)[nH]c12 [compound 51] | > 40 | – | –
26 | COc1ccccc1N1CCN([C@H](c2cc3cc(C)ccc3[nH]c2=O)c2nnnn2C2CCCC2)CC1 [compound 50] | – | – | IC50 [1, 5]: > 40 µM
27 | CCN1CCN([C@H](c2cc3cc(C)ccc3[nH]c2=O)c2nnnn2C2CCCC2)CC1 [compound 52] | – | – | IC50 [1, 5]: > 40 µM
28 | Cc1ccc2[nH]c(=O)c([C@H](c3nnnn3C3CCCC3)N3CCN(c4ccc(O)cc4)CC3)cc2c1 [compound 74] | – | – | IC50 [1, 5]: > 40 µM

The next lines start with results.

Row | IC50 [1, 3] [µM] | IC50 [2] [µM] | Compound | further results
29 | – | 31.3 | Cc1ccc2[nH]c(=O)c([C@H](c3nnnn3C3CCCC3)N3CCC(C)CC3)cc2c1 [compound 32] | PEST_LYP [1]: 1.52; IC50 ([1]; LYP IC50): 20.6 µM
30 | > 40 | – | Cc1cccc2cc([C@H](c3nnnn3C3CCCC3)N3CCN(C)CC3)c(=O)[nH]c12 [compound 75] | –
31 | > 40 | – | Cc1ccc2cc([C@@H](c3nnnn3C3CCCC3)N3CCCCC3)c(=O)[nH]c2c1 [compound 68] | –
32 | > 40 | – | Cc1ccc2[nH]c(=O)c([C@@H](c3nnnn3C3CCCC3)N3CCOCC3)cc2c1 [compound 58] | –
33 | 39.5 | 45.5 | Cc1cc(C)c2[nH]c(=O)c([C@H](c3nnnn3C3CCCC3)N3CCC[C@@H](C)C3)cc2c1 [compound 49] | PEST_LYP [1, 4]: 1.15
34 | > 40 | – | Cc1ccc2cc([C@@H](c3nnnn3C3CCCC3)N3CCCCC3)c(=O)[nH]c2c1C [compound 63] | –
35 | > 40 | – | Cc1cc(C)c2cc([C@H](c3nnnn3C3CCCC3)N3CCCCC3)c(=O)[nH]c2c1 [compound 70] | –
36 | 31.9 | 80.3 | Cc1ccc2cc([C@H](c3nnnn3C3CCCC3)N3CCC[C@@H](C)C3)c(=O)[nH]c2c1 [compound 43] | PEST_LYP [1, 4]: 2.52
37 | > 40 | – | Cc1ccc2[nH]c(=O)c([C@@H](c3nnnn3C3CCCC3)N3CCCC3)cc2c1 [compound 59] | –
38 | > 40 | – | Cc1cccc2cc([C@H](c3nnnn3C3CCCC3)N3CCC[C@@H](C)C3)c(=O)[nH]c12 [compound 72] | –
39 | > 40 | – | Cc1cc(C)c2cc([C@H](c3nnnn3C3CCCC3)N3CCC(C)CC3)c(=O)[nH]c2c1 [compound 71] | –
40 | > 40 | – | Cc1cc(C)c2[nH]c(=O)c([C@H](c3nnnn3C3CCCC3)N3CCC(C)CC3)cc2c1 [compound 62] | –
41 | > 40 | – | Cc1ccc2cc([C@H](c3nnnn3C3CCCC3)N3CCC[C@@H](C)C3)c(=O)[nH]c2c1C [compound 60] | –
42 | > 40 | – | Cc1ccc2[nH]c(=O)c([C@H](c3nnnn3C3CCCC3)N3CCC(O)CC3)cc2c1 [compound 78] | –
43 | > 40 | – | COc1ccc2cc([C@@H](c3nnnn3C3CCCC3)N3CCC(C)CC3)c(=O)[nH]c2c1 [compound 65] | –
44 | > 40 | – | CCOC(=O)C1CCN([C@H](c2cc3cc(C)ccc3[nH]c2=O)c2nnnn2C2CCCC2)CC1 [compound 79] | –
45 | > 40 | – | Cc1ccc2[nH]c(=O)c([C@@H](c3nnnn3C3CCCC3)N3CCCCCC3)cc2c1 [compound 54] | –
46 | > 40 | – | Cc1cc(C)c2[nH]c(=O)c([C@H](c3nnnn3C3CCCC3)N3CCCCC3)cc2c1 [compound 61] | –
47 | > 40 | – | Cc1ccc2[nH]c(=O)c([C@H](c3nnnn3C3CCCC3)N3CCN4CCC[C@H]4C3)cc2c1 [compound 57] | –
48 | – | 26.5 | Cc1ccc2[nH]c(=O)c([C@H](c3nnnn3C3CCCC3)N3CCC[C@@H](C)C3)cc2c1 [compound 24] | –
